Test results as given in paper PMC6597960 (Journal of Alzheimer's Disease Reports, 2019).
Peptide text beside a SMILES is read from it.

How the values were obtained:
[1] = test system: SH-SY5Y neuroblastoma cell line; assay: Cell cytotoxicity assay; type: cell-based; details: up to a concentration of 20 μM; 72 h; CellTiterGlo
APPSWE/Tg2576 mice = assay: Efficacy in 5-month-old AD model mice: Y-maze spontaneous alternation; type: in vivo, mouse; details: 5-month-old mice, 100 μg s.c. biweekly for 5 months, n = 12

Compound	Toxicity in SH-SY5Y cells [1]	Y-maze % alternation, after vs before treatment (APPSWE/Tg2576 mice)
C[C@H](O)[C@@H](NC(=O)[C@@H](Cc1c[nH]c2ccccc12)NC(=O)[C@@H](CCC(=O)O)NC(=O)CNC(=O)[C@@H](CCCCN)NC(=O)[C@H](N)Cc1c[nH]c2ccccc12)C(=O)NCC(=O)N[C@H](CCCNC(=N)N)C(=O)NCCC(=O)NCCCC[C@H](NC(=O)CCNC(=O)[C@@H](CCCNC(=N)N)NC(=O)CNC(=O)[C@H](NC(=O)[C@@H](Cc1c[nH]c2ccccc12)NC(=O)[C@@H](CCC(=O)O)NC(=O)CNC(=O)[C@@H](CCCCN)NC(=O)[C@H](N)Cc1c[nH]c2ccccc12)[C@H](C)O)C(=O)NCCCC[C@H](NC(=O)[C@H](CCCCNC(=O)CCNC(=O)[C@@H](CCCNC(=N)N)NC(=O)CNC(=O)[C@H](NC(=O)[C@@H](Cc1c[nH]c2ccccc12)NC(=O)[C@@H](CCC(=O)O)NC(=O)CNC(=O)[C@@H](CCCCN)NC(=O)[C@H](N)Cc1c[nH]c2ccccc12)[C@H](C)O)NC(=O)CCNC(=O)[C@@H](CCCNC(=N)N)NC(=O)CNC(=O)[C@H](NC(=O)[C@@H](Cc1c[nH]c2ccccc12)NC(=O)[C@@H](CCC(=O)O)NC(=O)CNC(=O)[C@@H](CCCCN)NC(=O)[C@H](N)Cc1c[nH]c2ccccc12)[C@H](C)O)C(=O)N[C@@H](CS)C(=O)O [RI-peptide] (HELM PEPTIDE1{[dW].[dK].G.[dE].[dW].[dT].G.[dR].[bAla].K.K.C}|PEPTIDE2{[dW].[dK].G.[dE].[dW].[dT].G.[dR].[bAla].K}|PEPTIDE3{[dW].[dK].G.[dE].[dW].[dT].G.[dR].[bAla]}|PEPTIDE4{[dW].[dK].G.[dE].[dW].[dT].G.[dR].[bAla]}$PEPTIDE1,PEPTIDE4,10:R3-9:R2|PEPTIDE1,PEPTIDE2,11:R3-10:R2|PEPTIDE2,PEPTIDE3,10:R3-9:R2$$$V2.0; N-terminus and C-terminus assumed)	not toxic	–
[FFVLK]4	–	improved % alternation results after treatment
